In brackets after ≈: the same amount, converted by molar mass.
How the values were obtained:
Neutrophil [1] = experiment: Immunomodulatory activity in neutrophils assessed as decrease in oxidative burst after 30 min by luminol-enhanced chemiluminescence assay; format: functional, cell-based; details: for IC50: 0.5 h
PBL [2] = experiment: Stimulation of PHA-induced Homo sapiens (human) peripheral blood lymphocytes proliferation assessed as increase in [3H]-thymidine incorporation at 50 ug/ml after 72 hr by beta-scintillation counting analysis relative to control; format: functional
PBL [3] = experiment: Antiproliferative activity against PHA-induced Homo sapiens (human) peripheral blood lymphocytes assessed as inhibition of [3H]-thymidine incorporation after 72 hr by beta-scintillation counting analysis; format: functional, cell-based
PBL [4] = experiment: Antiproliferative activity against PHA-induced Homo sapiens (human) peripheral blood lymphocytes assessed as inhibition of [3H]-thymidine incorporation at 50 ug/ml after 72 hr by beta-scintillation counting analysis relative to control; format: functional
Neutrophil [5] = experiment: Immunomodulatory activity in neutrophils assessed as decrease in oxidative burst at 50 ug/mL after 30 min by luminol-enhanced chemiluminescence assay relative to control; format: functional; design: scale not given: the % may be the effect or the level left

C=C(C)[C@@H]1CC[C@]2(C(=O)O)CC[C@]3(C)[C@H](CC[C@@H]4[C@@]5(C)CC[C@H](O)C(C)(C)[C@@H]5CC[C@]43C)[C@@H]12 [BETULINIC ACID]
Activity (Neutrophil [1]): Dose-dependent effect | IC50 (Neutrophil [1]): 11.1 µg/mL | Activity (PBL [2]): 38.2%

C=C(C)[C@@H]1CC[C@]2(C(=O)OCC)CC[C@]3(C)[C@H](CC[C@@H]4[C@@]5(C)CC[C@H](O)C(C)(C)[C@@H]5CC[C@]43C)[C@@H]12 [ETHYL BETULINATE]
IC50 (Neutrophil [1]): 3.85 µg/mL | IC50 (PBL [3]): 12.9 µg/mL (≈ 26.6 µM)

C=C(C)[C@@H]1CC[C@]2(C)CC[C@]3(C)[C@H](CC[C@@H]4[C@@]5(C)CC[C@H](OC(C)=O)C(C)(C)[C@@H]5CC[C@]43C)[C@@H]12 [LUPENYL ACETATE]
inhibition at 50 µg/mL (PBL [4]): 38.9% | Activity (Neutrophil [5]): 41.12%

C=C(C)[C@@H]1CC[C@]2(C)CC[C@]3(C)[C@H](CC[C@@H]4[C@@]5(C)CC[C@H](O)C(C)(C)[C@@H]5CC[C@]43C)[C@@H]12 [LUPEOL]
Activity (Neutrophil [1]): Dose-dependent effect | IC50 (Neutrophil [1]): 11.3 µg/mL | IC50 (PBL [3]): 13.2 µg/mL (≈ 30.8 µM) | inhibition (PBL [3]): Dose-dependent effect

— ChEMBL document CHEMBL3044669, “Molecular modeling, structure activity relationship and immunomodulatory properties of some lupeol derivatives” (Med Chem Res, 2013)
